Measurements as given in PubChem BioAssay AID1963962 (Molecular Pharmacology Branch, DTP, NCI, 2024).

Tested on: 967376-340-R-J2-PDC multicell spheroid viability
Test: Anticancer human tumor 967376-340-R-J2-PDC patient-derived colon adenocarcinoma cell line growth inhibition [PI3K]
Details: for IC50: curve of first compound; for viability, T/C: stronger effect = lower value
Outline: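 Spheroid viability read-out. Co-cultures contained the tumor line plus HUVEC and human MSCs. Each agent was paired with a PI3K inhibitor (inavolisib, alpelisib, duvelisib, copanlisib) across half-log dilutions starting at clinical Cmax, or at 10 microM when Cmax was unknown.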

[1] = second compound 0.0316 µM, first compound 0.0316 µM
[2] = second compound 0.0316 µM, first compound 0.1 µM
[3] = second compound 0.0316 µM, first compound 0.316 µM
[4] = second compound 0.0316 µM, first compound 1 µM
[5] = second compound 0.0316 µM, first compound 3.16 µM
[6] = second compound 0.0316 µM, first compound 10 µM
[7] = second compound 0.1 µM, first compound 0.0316 µM
[8] = second compound 0.1 µM, first compound 0.1 µM
[9] = second compound 0.1 µM, first compound 0.316 µM
[10] = second compound 0.1 µM, first compound 1 µM
[11] = second compound 0.1 µM, first compound 3.16 µM
[12] = second compound 0.1 µM, first compound 10 µM
[13] = second compound 0.316 µM, first compound 0.0316 µM
[14] = second compound 0.316 µM, first compound 0.1 µM
[15] = second compound 0.316 µM, first compound 0.316 µM
[16] = second compound 0.316 µM, first compound 1 µM
[17] = second compound 0.316 µM, first compound 3.16 µM
[18] = second compound 0.316 µM, first compound 10 µM
[19] = second compound 1 µM, first compound 0.0316 µM
[20] = second compound 1 µM, first compound 0.1 µM
[21] = second compound 1 µM, first compound 0.316 µM
[22] = second compound 1 µM, first compound 1 µM
[23] = second compound 1 µM, first compound 3.16 µM
[24] = second compound 1 µM, first compound 10 µM
[25] = second compound 3.16 µM, first compound 0.0316 µM
[26] = second compound 3.16 µM, first compound 0.1 µM
[27] = second compound 3.16 µM, first compound 0.316 µM
[28] = second compound 3.16 µM, first compound 1 µM
[29] = second compound 3.16 µM, first compound 3.16 µM
[30] = second compound 3.16 µM, first compound 10 µM
[31] = second compound 10 µM, first compound 0.0316 µM
[32] = second compound 10 µM, first compound 0.1 µM
[33] = second compound 10 µM, first compound 0.316 µM
[34] = second compound 10 µM, first compound 1 µM
[35] = second compound 10 µM, first compound 3.16 µM
[36] = second compound 10 µM, first compound 10 µM
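Further: spheroids exposed to agents for 7 days before read-out.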
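Wherever viability, T/C is given: luminescence used as surrogate of cell viability.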

Structure (SMILES): CC1(C)CCC(CN2CCN(c3ccc(C(=O)NS(=O)(=O)c4ccc(NCC5CCOCC5)c([N+](=O)[O-])c4)c(Oc4cnc5[nH]ccc5c4)c3)CC2)=C(c2ccc(Cl)cc2)C1 + CC(Nc1ncnc2nc[nH]c12)c1cc2cccc(Cl)c2c(=O)n1-c1ccccc1
- IC50 (second compound 0.0316 µM): > 10 µM
- IC50 (second compound 0.1 µM): > 10 µM
- IC50 (second compound 0.316 µM): > 10 µM
- IC50 (second compound 1 µM): > 10 µM
- IC50 (second compound 3.16 µM): > 10 µM
- IC50 (second compound 10 µM): > 10 µM
- viability, T/C [1]: 92%
- viability, T/C [2]: 83.4%
- viability, T/C [3]: 98.1%
- viability, T/C [4]: 83.8%
- viability, T/C [5]: 75.6%
- viability, T/C [6]: 92.2%
- viability, T/C [7]: 95.1%
- viability, T/C [8]: 79.7%
- viability, T/C [9]: 82.7%
- viability, T/C [10]: 87.3%
- viability, T/C [11]: 86.3%
- viability, T/C [12]: 75.2%
- viability, T/C [13]: 102%
- viability, T/C [14]: 101%
- viability, T/C [15]: 83%
- viability, T/C [16]: 83.1%
- viability, T/C [17]: 86.5%
- viability, T/C [18]: 71.6%
- viability, T/C [19]: 88.5%
- viability, T/C [20]: 115%
- viability, T/C [21]: 116%
- viability, T/C [22]: 87.8%
- viability, T/C [23]: 79%
- viability, T/C [24]: 74.1%
- viability, T/C [25]: 90.4%
- viability, T/C [26]: 86%
- viability, T/C [27]: 67.6%
- viability, T/C [28]: 82.9%
- viability, T/C [29]: 79.1%
- viability, T/C [30]: 101%
- viability, T/C [31]: 55.1%
- viability, T/C [32]: 73.3%
- viability, T/C [33]: 83.4%
- viability, T/C [34]: 74.7%
- viability, T/C [35]: 68%
- viability, T/C [36]: 76.3%

Structure (SMILES): C[C@@H](NC(=O)c1ncnc(N)c1Cl)c1ncc(C(=O)Nc2cc(C(F)(F)F)c(Cl)cn2)s1 + CC(Nc1ncnc2nc[nH]c12)c1cc2cccc(Cl)c2c(=O)n1-c1ccccc1
- IC50 (second compound 0.0316 µM): > 10 µM
- IC50 (second compound 0.1 µM): > 10 µM
- IC50 (second compound 0.316 µM): > 10 µM
- IC50 (second compound 1 µM): > 10 µM
- IC50 (second compound 3.16 µM): > 10 µM
- IC50 (second compound 10 µM): > 10 µM
- viability, T/C [1]: 100%
- viability, T/C [2]: 129%
- viability, T/C [3]: 109%
- viability, T/C [4]: 104%
- viability, T/C [5]: 101%
- viability, T/C [6]: 98.9%
- viability, T/C [7]: 123%
- viability, T/C [8]: 112%
- viability, T/C [9]: 90.5%
- viability, T/C [10]: 102%
- viability, T/C [11]: 110%
- viability, T/C [12]: 117%
- viability, T/C [13]: 92.5%
- viability, T/C [14]: 102%
- viability, T/C [15]: 109%
- viability, T/C [16]: 107%
- viability, T/C [17]: 96.9%
- viability, T/C [18]: 110%
- viability, T/C [19]: 114%
- viability, T/C [20]: 97.8%
- viability, T/C [21]: 99.7%
- viability, T/C [22]: 90.7%
- viability, T/C [23]: 127%
- viability, T/C [24]: 106%
- viability, T/C [25]: 95.9%
- viability, T/C [26]: 92.2%
- viability, T/C [27]: 106%
- viability, T/C [28]: 92.8%
- viability, T/C [29]: 97.3%
- viability, T/C [30]: 113%
- viability, T/C [31]: 79.7%
- viability, T/C [32]: 97.2%
- viability, T/C [33]: 106%
- viability, T/C [34]: 97.1%
- viability, T/C [35]: 107%
- viability, T/C [36]: 119%

Structure (SMILES): Cn1ncnc1[C@H]1c2n[nH]c(=O)c3cc(F)cc(c23)N[C@@H]1c1ccc(F)cc1 + CC(Nc1ncnc2nc[nH]c12)c1cc2cccc(Cl)c2c(=O)n1-c1ccccc1
- IC50 (second compound 0.0316 µM): > 0.1 µM
- IC50 (second compound 0.1 µM): > 0.1 µM
- IC50 (second compound 0.316 µM): > 0.1 µM
- IC50 (second compound 1 µM): > 0.1 µM
- IC50 (second compound 3.16 µM): > 0.1 µM
- IC50 (second compound 10 µM): > 0.1 µM
- viability, T/C (second compound 0.0316 µM, first compound 0.000316 µM): 111%
- viability, T/C (second compound 0.0316 µM, first compound 0.001 µM): 114%
- viability, T/C (second compound 0.0316 µM, first compound 0.00316 µM): 90%
- viability, T/C (second compound 0.0316 µM, first compound 0.01 µM): 107%
- viability, T/C [1]: 84.7%
- viability, T/C [2]: 86.7%
- viability, T/C (second compound 0.1 µM, first compound 0.000316 µM): 103%
- viability, T/C (second compound 0.1 µM, first compound 0.001 µM): 94.2%
- viability, T/C (second compound 0.1 µM, first compound 0.00316 µM): 102%
- viability, T/C (second compound 0.1 µM, first compound 0.01 µM): 109%
- viability, T/C [7]: 93.4%
- viability, T/C [8]: 89.5%
- viability, T/C (second compound 0.316 µM, first compound 0.000316 µM): 83.5%
- viability, T/C (second compound 0.316 µM, first compound 0.001 µM): 96.5%
- viability, T/C (second compound 0.316 µM, first compound 0.00316 µM): 78.6%
- viability, T/C (second compound 0.316 µM, first compound 0.01 µM): 83.4%
- viability, T/C [13]: 102%
- viability, T/C [14]: 79.2%
- viability, T/C (second compound 1 µM, first compound 0.000316 µM): 122%
- viability, T/C (second compound 1 µM, first compound 0.001 µM): 84.7%
- viability, T/C (second compound 1 µM, first compound 0.00316 µM): 87.2%
- viability, T/C (second compound 1 µM, first compound 0.01 µM): 91.7%
- viability, T/C [19]: 108%
- viability, T/C [20]: 104%
- viability, T/C (second compound 3.16 µM, first compound 0.000316 µM): 73.7%
- viability, T/C (second compound 3.16 µM, first compound 0.001 µM): 73.8%
- viability, T/C (second compound 3.16 µM, first compound 0.00316 µM): 89.6%
- viability, T/C (second compound 3.16 µM, first compound 0.01 µM): 71.1%
- viability, T/C [25]: 83.3%
- viability, T/C [26]: 87.8%
- viability, T/C (second compound 10 µM, first compound 0.000316 µM): 89.5%
- viability, T/C (second compound 10 µM, first compound 0.001 µM): 102%
- viability, T/C (second compound 10 µM, first compound 0.00316 µM): 81.5%
- viability, T/C (second compound 10 µM, first compound 0.01 µM): 76.4%
- viability, T/C [31]: 78%
- viability, T/C [32]: 73.5%
